The source made the active and inactive calls. The calls are words filed in the database; no cut-off is given here.
Key:
[1] = biological target: T1, Protein cereblon/Eukaryotic peptide chain release factor GTP-binding subunit ERF3A (Homo sapiens, UniProt Q96SW2+P15170); experiment: Molecular glue activity at CRBN/GSPT1 in human 22Rv1 cells assessed as induction of GSPT1 degradation at 20 nM incubated for 36 hrs by Western blot analysis (reference value: 0 %); assay type: cell-based
[2] = biological target: T1, Protein cereblon/Eukaryotic peptide chain release factor GTP-binding subunit ERF3A; experiment: Binding affinity to CRBN/GSPT1 in human 22Rv1 cells assessed as ternary complex formation incubated for 6 hrs by co-immunoprecipitation based Western blot analysis; assay type: cell-based
[3] = tested on: Protein cereblon/Androgen receptor (Homo sapiens), P10275+Q96SW2 [UNDEFINED MUTATION]; experiment: PROTAC activity at CRBN/Androgen receptor splice variant 7 in human 22Rv1 cells assessed as induction of AR-V7 degradation by measuring maximal efficacy incubated for 24 hrs by Western blot analysis relative to control; assay type: cell-based
Protein cereblon/Androgen receptor (Homo sapiens), P10275+Q96SW2 [UNDEFINED MUTATION], sequence (Q96SW2 whole entry, looked up, change not shown, one chain of several, canonical isoform): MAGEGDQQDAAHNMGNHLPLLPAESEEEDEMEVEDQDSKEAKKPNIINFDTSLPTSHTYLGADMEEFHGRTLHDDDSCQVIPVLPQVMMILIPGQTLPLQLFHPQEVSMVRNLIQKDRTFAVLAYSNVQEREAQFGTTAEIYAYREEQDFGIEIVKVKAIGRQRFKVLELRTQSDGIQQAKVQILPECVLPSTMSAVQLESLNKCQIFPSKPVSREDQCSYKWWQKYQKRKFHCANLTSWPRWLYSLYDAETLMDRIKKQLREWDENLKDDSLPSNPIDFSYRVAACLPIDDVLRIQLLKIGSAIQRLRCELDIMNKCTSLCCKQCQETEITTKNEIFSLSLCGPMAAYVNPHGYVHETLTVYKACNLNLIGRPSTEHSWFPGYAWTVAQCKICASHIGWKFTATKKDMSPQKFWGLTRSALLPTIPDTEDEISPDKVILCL

[4] = biological target: T2, Protein cereblon/Androgen receptor (Homo sapiens, UniProt P10275+Q96SW2); experiment: PROTAC activity at CRBN/AR in human VCaP cells assessed as induction of AR degradation at 0.01 uM incubated for 24 hrs by Western blot analysis relative to control; assay type: cell-based
T2 sequence (Q96SW2 whole entry, looked up, one chain of several): as the sequence (Q96SW2 whole entry, looked up, change not shown, one chain of several, canonical isoform) above

[5] = biological target: T1, Protein cereblon/Eukaryotic peptide chain release factor GTP-binding subunit ERF3A; experiment: Molecular glue activity at CRBN/GSPT1 in human Enzalutamide-resistant LNCaP cells assessed as induction of GSPT1 degradation at 1 to 300 nM by Western blot analysis; assay type: cell-based; conditions: dose 1-300 nM
CWR22R [6] = experiment: Downregulation of CCNB1IP1 gene expression in human 22Rv1 cells at 3 nM incubated for 24 hrs by Volcano plot analysis; assay type: functional, cell-based
CWR22R [7] = experiment: Induction of apoptosis in human 22Rv1 cells assessed as increase in cleaved caspase-3 expression incubated for 24 hrs by Western blot analysis; assay type: functional, cell-based; conditions: dose 1-30 nM
[8] = biological target: T2, Protein cereblon/Androgen receptor; experiment: PROTAC activity at CRBN/AR in human VCaP cells assessed as induction of AR degradation at 0.1 uM incubated for 24 hrs by Western blot analysis relative to control; assay type: cell-based
[9] = biological target: T1, Protein cereblon/Eukaryotic peptide chain release factor GTP-binding subunit ERF3A; experiment: Molecular glue activity at CRBN/GSPT1 in human 22Rv1 cells assessed as increase in GSPT1 polyubiquitination at 30 nM preincubated with compound for 12 hrs followed by MG132 addition and measured after 12 hrs by immunoprecipitation based Western blot analysis; assay type: cell-based; conditions: time 24.0 hrs
[10] = biological target: T2, Protein cereblon/Androgen receptor; experiment: PROTAC activity at CRBN/AR in human 22Rv1 cells assessed as decrease in TMPRSS2 protein level incubated for 24 hrs by Western blot analysis; assay type: cell-based; conditions: dose 1-10 nM
CWR22R [11] = experiment: Downregulation of RCC2 gene expression in human 22Rv1 cells at 3 nM incubated for 24 hrs by Volcano plot analysis; assay type: functional, cell-based
[12] = Selectivity ratio of IC50 for antiproliferative activity against AR-independent human DU-145 cells assessed as cell growth inhibition to IC50 for antiproliferative activity against AR-dependent human LNCaP cells assessed as cell growth inhibition; assay type: functional
[13] = biological target: T1, Protein cereblon/Eukaryotic peptide chain release factor GTP-binding subunit ERF3A; experiment: Molecular glue activity at CRBN/GSPT1 in human VCaP cells assessed as induction of GSPT1 degradation at 50 nM preincubated with MG132 followed by compound addition and measured after 12 hrs by Western blot analysis; assay type: cell-based
[14] = tested on: Protein cereblon/Androgen receptor (Homo sapiens), P10275+Q96SW2 [UNDEFINED MUTATION]; experiment: PROTAC activity at CRBN/Androgen receptor splice variant 7 in human VCaP cells assessed as induction of AR-V7 degradation at 50 nM preincubated with MG132 followed by compound addition and measured after 12 hrs by Western blot analysis; assay type: cell-based
CWR22R [15] = experiment: Upregulation of p53 signaling pathway related gene expression in human 22Rv1 cells at 3 nM incubated for 24 hrs by KEGG enrichment analysis; assay type: functional, cell-based
[16] = tested on: Protein cereblon/Androgen receptor (Homo sapiens), P10275+Q96SW2 [UNDEFINED MUTATION]; experiment: PROTAC activity at CRBN/Androgen receptor splice variant 7 in human 22Rv1 cells assessed as induction of AR-V7 degradation at 20 uM preincubated with EPI-002 for 4 hrs followed by compound addition and measured after 36 hrs by Western blot analysis; assay type: cell-based
[17] = tested on: Protein cereblon/Androgen receptor (Homo sapiens), P10275+Q96SW2 [UNDEFINED MUTATION]; experiment: PROTAC activity at CRBN/Androgen receptor splice variant 7 in human VCaP cells assessed as induction of AR-V7 degradation at 50 nM preincubated with MLN4924 followed by compound addition and measured after 12 hrs by Western blot analysis; assay type: cell-based
CWR22R [18] = experiment: Effect on androgen receptor splice variant 7 mRNA expression in human 22Rv1 cells at 1 to 10 nM incubated for 24 hrs by RT-PCR analysis; assay type: functional, cell-based; conditions: dose 1-10 nM
[19] = biological target: T2, Protein cereblon/Androgen receptor; experiment: PROTAC activity at CRBN/AR in human 22Rv1 cells assessed as induction of AR degradation at 20 nM incubated for 24 hrs by Western blot analysis (reference value: 0 %); assay type: cell-based
DU-145 = experiment: Antiproliferative activity against AR-independent human DU-145 cells assessed as cell growth inhibition incubated for 72 hrs by Celltiter-lumi luminescent cell viability assay; assay type: functional, cell-based; conditions: DU-145, 72 h
[20] = Selectivity ratio of IC50 for antiproliferative activity against AR-independent human DU-145 cells assessed as cell growth inhibition to IC50 for antiproliferative activity against AR-dependent human 22Rv1 cells assessed as cell growth inhibition; assay type: functional
Androgen receptor = biological target: T3, Androgen receptor (Homo sapiens, UniProt P10275); experiment: Inhibition of wildtype AR (unknown origin) transcriptional activity transfected in HEK293T cells co-transfected with PSA-luciferase reporter and pRL-TK assessed as reduction in PSA-luciferase activity incubated for 24 hrs by luminescence based microplate reader analysis; assay type: cell-based
T3 sequence (P10275 whole entry): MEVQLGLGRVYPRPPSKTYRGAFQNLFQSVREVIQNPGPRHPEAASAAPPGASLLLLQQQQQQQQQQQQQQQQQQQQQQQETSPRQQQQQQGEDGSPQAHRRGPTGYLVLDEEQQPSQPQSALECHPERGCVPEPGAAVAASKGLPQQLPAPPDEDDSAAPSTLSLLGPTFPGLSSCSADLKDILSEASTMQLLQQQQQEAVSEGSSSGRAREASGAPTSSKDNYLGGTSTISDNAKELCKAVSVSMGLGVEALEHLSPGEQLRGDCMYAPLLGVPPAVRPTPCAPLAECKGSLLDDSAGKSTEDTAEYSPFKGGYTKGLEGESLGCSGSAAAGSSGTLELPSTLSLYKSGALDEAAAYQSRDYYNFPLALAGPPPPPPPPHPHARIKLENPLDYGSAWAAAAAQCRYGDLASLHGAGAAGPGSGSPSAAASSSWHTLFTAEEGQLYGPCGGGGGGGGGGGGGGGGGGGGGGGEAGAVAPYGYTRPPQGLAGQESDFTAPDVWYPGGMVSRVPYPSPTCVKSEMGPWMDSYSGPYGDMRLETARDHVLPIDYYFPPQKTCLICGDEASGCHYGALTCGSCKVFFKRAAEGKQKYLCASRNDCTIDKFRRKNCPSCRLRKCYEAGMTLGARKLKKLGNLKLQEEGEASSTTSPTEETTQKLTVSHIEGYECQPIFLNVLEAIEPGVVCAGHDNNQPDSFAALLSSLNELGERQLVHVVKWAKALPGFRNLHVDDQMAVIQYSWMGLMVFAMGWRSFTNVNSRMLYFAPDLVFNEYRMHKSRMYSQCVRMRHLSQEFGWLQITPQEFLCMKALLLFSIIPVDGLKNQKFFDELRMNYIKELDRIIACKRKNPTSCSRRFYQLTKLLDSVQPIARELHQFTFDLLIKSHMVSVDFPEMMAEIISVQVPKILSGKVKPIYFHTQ

T1 sequence (P15170 whole entry, looked up): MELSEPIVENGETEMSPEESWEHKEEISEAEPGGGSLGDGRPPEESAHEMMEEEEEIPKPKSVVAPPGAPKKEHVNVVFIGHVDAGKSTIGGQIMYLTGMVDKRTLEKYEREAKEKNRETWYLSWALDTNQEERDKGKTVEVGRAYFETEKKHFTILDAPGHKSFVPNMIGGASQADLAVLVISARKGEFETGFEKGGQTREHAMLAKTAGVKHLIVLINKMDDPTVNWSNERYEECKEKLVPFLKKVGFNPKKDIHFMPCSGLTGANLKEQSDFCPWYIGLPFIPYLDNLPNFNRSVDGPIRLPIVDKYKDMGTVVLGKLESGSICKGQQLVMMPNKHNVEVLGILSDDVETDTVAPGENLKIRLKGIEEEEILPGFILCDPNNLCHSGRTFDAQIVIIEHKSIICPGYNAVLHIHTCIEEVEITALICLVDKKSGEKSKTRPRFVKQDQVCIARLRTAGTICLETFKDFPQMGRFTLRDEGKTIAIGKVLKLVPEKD
T1 sequence (Q96SW2 whole entry, looked up): as the sequence (Q96SW2 whole entry, looked up, change not shown, one chain of several, canonical isoform) above

## COc1ccc(C(C)(C)c2cc(Cl)c(OCC3CCN(C(=O)CCCCCNc4ccc5c(c4)C(=O)N(C4CCC(=O)NC4=O)C5=O)CC3)c(C#N)c2)cc1 (configuration not stated)
[1]
  Activity: 98.5%
[2]
  Activity: Active
[3]
  Emax: 92.6%
[4]
  Activity: 89.4%
[5]
  Activity: Active
CWR22R [6]
  Activity: Active
CWR22R [7]
  Activity: Dose-dependent-effect
[8]
  Activity: 92.2%
[9]
  Activity: Active
[10]
  Activity: Dose-dependent-effect
CWR22R [11]
  Activity: Active
[12]
  Ratio IC50: 315
[13]
  Activity: inactive
[14]
  Activity: inactive
CWR22R [15]
  Activity: Active
[16]
  Activity: inactive
[17]
  Activity: inactive
CWR22R [18]
  Activity: Minimal_effect
[19]
  Activity: 94.1%
DU-145
  IC50: 882 nM
[20]
  Ratio IC50: 802
Androgen receptor
  IC50: 3.2 nM

— ChEMBL document CHEMBL6177998, “Rational Design of Dual Degraders by Incorporating Molecular Glue Structural Features into PROTAC Degraders” (J Med Chem, 2025)
